# Reference: patent publication US7892767B2, “Phosphospecific chemokine receptor antibodies” (Washington University in St. Louis, priority 2005, dated 2011)
# What was measured:
# Daoy xenografts = details: systemic delivery, reference (3); cited from earlier work
# U87 GBM xenografts = details: systemic delivery, reference (3); cited from earlier work
# [1] = reference (94), cited from earlier work
# Nf1−/− astrocytes [2] = test: Cell number by trypan blue exclusion, Nf1−/− astrocytes; format: cell-based, mouse; details: data not shown
# Experimental: (§1) Culture and treatment of primary astrocytes. Primary cultures of astrocytes were prepared from post-natal day two Nf1^flox/flox mice as previously described (134) and in accordance with established Animal Studies Protocols at Washington University School of Medicine. Cultures were infected with adenovirus containing either Cre recombinase (Nf1−/−) or LacZ (Nf1+/+). Primary cultures of astrocytes were grown under standard adherent conditions in serum free media (DMEM/F12 or Neurobasal (Gibco-BRL)) in the presence or absence of 0.1 μg/ml CXCL12 (Peprotech) and 10 μM Forskolin for 24 hours, as indicated. Cell number was determined after 24 hours by trypan blue exclusion and the growth effects of CXCL12 were derived as follows: ((cell number in the presence of CXCL12—cell number cell in the absence of CXCL12)/cell number in the absence of CXCL12)×100.)
# (§2) To determine the biological significance of CXCR4 activation to NF1 glioma biology, we next sought to evaluate the regulation of CXCL12 growth effects by neurofibromin in astrocytes. While the true cell of origin of astrocytomas remains unknown, we utilized primary cultures of cortical astrocytes as a model of a normal counterpart to astrocytoma cells. Astrocytes were derived from Nf1^flox/flox mice and rendered Nf1+/+ or Nf1−/− by infection with adenovirus encoding LacZ or Cre recombinase, respectively.
# Nf1+/+ astrocytes [3] = test: Cell number by trypan blue exclusion, Nf1+/+ astrocytes; format: cell-based, mouse; details: data not shown
# Experimental: as §1, §2
# CXCR4 = CXCR4 (Homo sapiens, UniProt P61073); test: Stimulated CXCR4 phosphorylation in LN428 GBM cells (western blot); format: cell-based; parameters: lysates from the glioblastoma cell line LN428, which is known to express high levels of CXCR4; endogenous in cells; host or cells: LN428 GBM cell line
# Sequence of CXCR4 (P61073 whole entry): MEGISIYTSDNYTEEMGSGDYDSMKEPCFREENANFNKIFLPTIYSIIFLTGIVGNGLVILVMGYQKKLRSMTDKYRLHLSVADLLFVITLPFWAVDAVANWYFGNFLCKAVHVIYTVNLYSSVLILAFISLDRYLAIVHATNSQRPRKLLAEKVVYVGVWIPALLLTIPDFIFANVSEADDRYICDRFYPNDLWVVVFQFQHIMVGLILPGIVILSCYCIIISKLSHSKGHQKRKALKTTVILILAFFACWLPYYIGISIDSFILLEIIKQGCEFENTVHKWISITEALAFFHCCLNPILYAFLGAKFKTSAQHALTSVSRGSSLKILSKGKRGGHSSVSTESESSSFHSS
# Experimental: Cell Culture, transfections and stimulation of CXCR4 phosphorylation. The U87 glioblastoma multiforme (GBM, grade IV) cell line was obtained from the American Type Culture Collection. The LN428 GBM cell line was a kind gift of Dr Erwin van Meir (Winship Cancer Center, Emory University, Atlanta, Ga.). U87 cells were grown in minimum essential a media supplemented with 10% fetal bovine serum ((FBS), Biomedia, Foster City, Calif.). LN428 cells were grown in DMEM (Fisher, Pittsburgh, Pa.) supplemented with 10% horse serum (Sigma). All cells were grown in the presence of penicillin-streptomycin. The coding sequence for human CXCR4 was obtained by high fidelity RT-PCR (Superscript III Platinum, Invitrogen), and cloned into the expression vector pMSCVneo (Clontech, Palo Alto, Calif.). Transfections were performed with 0.3 μg of plasmid DNA in 20 μl Lipofectamine (Invitrogen)/35 mm^2 tissue culture dish for 9 hours according to the manufacturer's instructions. Cells recovered in Optimem supplemented with 10% FBS. Transfected and non-transfected cells were placed in serum free media for 24 hours prior to treatment with agents to stimulate CXCR4 phosphorylation. Treatment was usually for 0 or 10 minutes with 1 μg/ml CXCL12 (Peprotech, Rocky Hill N.J.), 4 μM 4-Phorbol 12-myristate 13-acetate (PMA) or 10 nM EGF. In some experiments, CXCL12 was washed away and cells were incubated for an additional 20 minutes in serum free media alone.
# Western Blot Analysis. Whole-cell extracts were obtained by lysing cells with lysis buffer (20 mM Tris pH 7.4, 137 mM NaCl, 10% Glycerol and 1% Triton X-100) supplemented with phosphatase inhibitor cocktail set II (Calbiochem, La Jolla, Calif.) and protease inhibitors PMSF (1 mM), leupeptin (0.005 mg/ml) and aprotonin (0.005 mg/ml). The proteins (50-75 μg) were resolved with 10% Bis-Tris gels (Invitrogen) and transferred onto the nitrocellulose membrane Hybond ECL (Amersham, Piscataway, N.J.) according to standard protocols. Polyclonal anti-CXCR4 antibody was used at a 1:500 dilution and P338-CXCR4 and P339-CXCR4 directed antibodies were used at 1:100 dilutions overnight at 4° C. This was followed by incubation with horseradish peroxidase-conjugated secondary antibody (1:15,000; Bio-Rad). Peroxide activity was detected using the enhanced chemiluminescence Supersignal West Dura system (Pierce, Rockford, Ill.). Mouse anti-actin antibody at a concentration of 1:1500 was used as a loading control. Peptide competitions and lambda phosphatase treatment were performed as described above.
# The utility of these antibodies for evaluating the relationship between ligand binding and CXCR4 function is dependent upon their ability to distinguish a ligand activated form of the receptor. Serum starvation increased CXCL12 responsiveness (data not shown), and for all of these experiments LN428 GBM cells were serum starved for 24 hours prior to CXCL12 treatment. Serum starved LN428 cells were treated with 1 μg/ml CXCL12 for 0 or 10 minutes and the abundance of phospho-CXCR4 was determined by western blot and immuno-localization in fixed cells. […] A similar CXCL12-induced increase in P339-CXCR4 (FIG. 3B), but not P338-CXCR4 (data not shown) immunoreactivity was seen by immunofluorescent analysis of paraformaldehyde fixed cells. After 10 minutes of exposure to CXCL12, P339-CXCR4 can be seen localized to the surface of LN428 cells (FIG. 3B). CXCL12 was then washed away and cells were incubated in its absence for an additional 20 minutes. Surface labeling declined as a function of time and P339-CXCR4 was seen accumulating intracellularly.
# Whether this is the only kinase that can phosphorylate these residues is unclear. The observation that protein kinase C (PKC) stimulated CXCR4 internalization also depends upon phosphorylation of this region of the molecule raises the question of whether these sites might also be PKC phosphorylation sites (17, 19, 27, 28). […]
# Nf1−/− astrocytes [4] = test: Intracellular cAMP by ELISA, Nf1−/− astrocytes; format: cell-based, mouse
# Experimental: (§3) cAMP measurements. cAMP was measured by ELISA (Cayman Chemical Company, Ann Arbor, Mich. or Assay Designs, Ann Arbor, Mich.). Briefly, astrocyte cultures were lysed in 0.1 N HCl. After the removal of cellular debris, soluble cellular extract was dried down and resuspended in EIA buffer. Experimental samples and cAMP standard curve were acetylated to increase the sensitivity of the assay and incubated with cAMP ACHe tracer and cAMP EIA anti-serum overnight at 4° C. according to the manufacturer's instructions. After extensive washing, bound antibody was measured by spectrophotometric analysis. Concentrations of cAMP were derived from comparison with standard curve according to manufacturer's instructions.
# (§4) We evaluated the time dependent changes in intracellular cAMP in Nf1+/+ and Nf1−/− astrocytes after exposure to 0.1 μg/ml CXCL12. […] However, in Nf1+/+ astrocytes, intracellular levels of cAMP rapidly recovered to baseline and oscillated between baseline and 40% of baseline over the 45-minute experimental period (FIG. 10B).
# (§5) We hypothesized that if cooperative signaling between Nf1 loss and CXCR4 activation promotes tumor formation through the suppression of cAMP, then agents that alter intracellular cAMP should modulate CXCL12 responses. We treated astrocytes with the adenylyl cyclase (AC) activator forskolin in the presence and absence of CXCL12. […] In these experiments, forskolin elevated intracellular cAMP levels in both Nf1+/+ and Nf1−/− astrocytes with peak values of 17.8+/−0.4 and 19.4+/−4.5 pmol/mg of protein, respectively, after 24 hours of treatment. The effect of forskolin was not abrogated by co-treatment with CXCL12. Under these conditions, cAMP levels were 17.9+/−2.5 and 10.4+/−5.8 pmol/mg of total protein in Nf1+/+ and Nf1−/− astrocytes, respectively. […] The effect of forskolin on CXCL12-mediated Nf1−/− apoptosis was evidenced by changes in the percentage of Nf1−/− astrocytes in the sub-G0 fraction of the cell cycle (FIG. 11B). Thus while astrocyte growth is dependent upon MEK and PI3 kinase activity, CXCL12-induced Nf1−/− astrocyte growth requires the suppression of intracellular cAMP levels.
# Nf1+/+ astrocytes [5] = test: Intracellular cAMP by ELISA, Nf1+/+ astrocytes; format: cell-based, mouse
# Experimental: as §3, §4, §5
# [6] = 1 μg/ml CXCL12, 4 μM PMA or 10 nM EGF
# [7] = forskolin 10 μM co-treatment with CXCL12 0.1 μg/ml
smiles,measurement,setting,value
c1cc(CN2CCCNCCNCCCNCC2)ccc1CN1CCCNCCNCCCNCC1 [AMD 3100],intracranial growth of medulloblastoma xenografts,Daoy xenografts,blocked the intracranial growth
same,intracranial growth of glioblastoma xenografts,U87 GBM xenografts,blocked the intracranial growth
same,toxicities,[1]; sustained dosing over a 10 day period,mild toxicities
same,white blood cell counts,[1]; throughout an 18 day follow-up period after cessation,elevations of white blood cell counts
COc1cccc(-c2cc(=O)c3ccccc3o2)c1N [PD98059],astrocyte growth,Nf1−/− astrocytes [2],prevented growth
same,astrocyte growth,Nf1+/+ astrocytes [3],prevented growth
"CCCCCCCCCCCCCC(=O)O[C@@H]1[C@@H](C)[C@@]2(O)[C@@H](C=C(CO)C[C@]3(O)C(=O)C(C)=C[C@@H]23)[C@@H]2C(C)(C)[C@]12OC(C)=O [PMA, 4-Phorbol 12-myristate 13-acetate]",P338 phosphorylation stimulated,CXCR4; [6],not
same,P339 phosphorylation,CXCR4; [6],stimulated
same,P339-CXCR4 immunoreactivity compared with response to CXCL12,CXCR4; 4 μM PMA or 10 nM EGF,greater
C=C[C@@]1(C)CC(=O)[C@]2(O)[C@@]3(C)[C@@H](O)CCC(C)(C)[C@@H]3[C@H](O)[C@H](OC(C)=O)[C@@]2(C)O1 [forskolin],cAMP levels,Nf1−/− astrocytes [4]; [7],10.4+/−5.8 pmol/mg of total protein
same,peak intracellular cAMP,"Nf1−/− astrocytes [4]; forskolin 10 μM, 24 hours",19.4+/−4.5 pmol/mg of protein
same,cAMP levels,Nf1+/+ astrocytes [5]; [7],17.9+/−2.5 pmol/mg of total protein
same,peak intracellular cAMP,"Nf1+/+ astrocytes [5]; forskolin 10 μM, 24 hours",17.8+/−0.4 pmol/mg of protein
